Measured values taken from patent publication US12390532B2, “ALK protein regulator and anti-tumor application thereof” (SHANGHAITECH UNIVERSITY, priority 2019, dated 2025).

Each compound was assayed on SR cells (NPM-ALK, human anaplastic large cell lymphoma cells) (assay: Proliferation inhibition (IC50) in SR cells, CCK8 (WST) reagent). Conditions: 72 h, SR cells, WST reagent, 72 hours, read-out: IC50 (half inhibitory concentration), Brigatinib series in lymphoma cell lines.
Type: cell-based
Protocol: The ALK gene rearrangement positive cell line used was SR cells (NPM-ALK, human anaplastic large cell lymphoma cells). MDA-MB231 was a triple-negative breast cancer cell. Both SR cells and MDA-MB231 cells were purchased from ATCC.
The tumor cell line used was daily cultured in a 37° C. incubator containing 5% CO2. The medium was RPMI1640 supplemented with 10% FCS and Penicillin-Streptomycin.
The IC50 of the compound of the present disclosure was determined using Promega's Cell Titer Blue, Cell Titer GLO or commercially available WST reagents. The specific steps were as follows: the cells were seeded in a 96-well plate containing 100 microliters of RPMI medium containing serum at a number of 2000 cells/well. On the second day, the original drug and the compound of the present disclosure were serially diluted and added to the cells. After 72 hours of treatment with the compound of the present disclosure, the cell activity detection reagent was added to the culture medium for cell activity determination according to the instructions. The negative control was DMSO, and the positive control was the original drug, and the cells were treated in the same manner as the compound of the present disclosure. The growth inhibition of the compounds of the present disclosure on cells was plotted by Prism Graphpad software and the IC50 of the compounds of the present disclosure was counted from it.
We conducted dose-dependent experiments on the designed and synthesized compounds of the present disclosure in SR cells. […] The cells were treated with different concentrations of compounds (starting at 10 μM, 3 times dilution factor, 10 concentrations). After 72 hours, the cells were detected using CCK8 reagent (WST).

Row | SMILES | IC50 [nM]
1 | COc1cc(N2CCC(N3CCN(CCCCCC#Cc4cccc5c4CN(C4CCC(=O)NC4=O)C5=O)CC3)CC2)ccc1Nc1ncc(Cl)c(Nc2ccccc2P(C)(C)=O)n1 (stereo not shown) [SIAIS293015, 3-(4-(7-(4-(1-(4-((5-chloro-4-((2-(dimethylphosphono)phenyl)amino)pyrimidin-2-yl)amino)-3-methoxyphenyl)piperidin-4-yl)piperazin-1-yl)hept-1-yn-1-yl)-1-oxoisoindolin-2-yl)piperidine-2,6-dione] | 1.2
2 | COc1cc(N2CCC(N3CCN(C(=O)COc4cccc5c4C(=O)N(C4CCC(=O)NC4=O)C5=O)CC3)CC2)ccc1Nc1ncc(Cl)c(Nc2ccccc2P(C)(C)=O)n1 (stereo not shown) [SIAIS293016, 4-(2-(4-(1-(4-((5-chloro-4-((2-(dimethylphosphono)phenyl)amino)pyrimidin-2-yl)amino)-3-methoxyphenyl)piperidin-4-yl)piperazin-1-yl)-2-oxoethoxy)-2-(2,6-dioxopiperidin-3-yl)isoindoline-1,3-dione] | 7.2
3 | COc1cc(N2CCC(NCCCCCCSc3cccc4c3CN(C3CCC(=O)NC3=O)C4=O)CC2)ccc1Nc1ncc(Cl)c(Nc2ccccc2P(=O)(OC)OC)n1 (stereo not shown) [SIAIS293110, 3-(4-((6-((1-(4-((5-chloro-4-((2-(dimethylphosphono)phenyl)amino)pyrimidin-2-yl)amino)-3-methoxyphenyl)piperidin-4-yl)amino)hexyl)thio)-1-oxoisoindolin-2-yl)piperidine-2,6-dione] | 0.33 ± 0.11
4 | COc1cc(N2CCC(N3CCN(CCCC#Cc4cccc5c4C(=O)N(C4CCC(=O)NC4=O)C5=O)CC3)CC2)ccc1Nc1ncc(Cl)c(Nc2ccccc2P(C)(C)=O)n1 (stereo not shown) [SIAIS352010, 4-(5-(4-(1-(4-((5-chloro-4-((2-(dimethylphosphono)phenyl)amino)pyrimidin-2-yl)amino)-3-methoxyphenyl)piperidin-4-yl)piperazin-1-yl)pent-1-yn-1-yl)-2-(2,6-dioxopiperidin-3-yl)isoindoline-1,3-dione] | 19 ± 5.8

Same assay, conditions: 72 h, read-out: IC50 (half inhibitory concentration), Alectinib series in lymphoma cell lines, SR cells, WST reagent, 72 hours

Row | SMILES | IC50 [nM]
5 | CCc1cc2c(cc1N1CCC(N)CC1)C(C)(C)c1[nH]c3cc(C#N)ccc3c1C2=O [Alectinib derivative B (SIAIS184193), 8-(4-aminopiperidin-1-yl)-9-ethyl-6,6-dimethyl-11-oxo-6,11-dihydro-5H-benzo[b]carbazole-3-carbonitrile] | 9.1 ± 5.5
6 | CCc1cc2c(cc1N1CCC(N3CCNCC3)CC1)C(C)(C)c1[nH]c3cc(C#N)ccc3c1C2=O [Alectinib derivative C (SIAIS184192), 9-Ethyl-6,6-dimethyl-11-oxo-8-(4-(piperazin-1-yl)piperidin-1-yl)-6,11-dihydro-5H-benzo[b]carbazole-3-carbonitrile] | 10.1 ± 4.3
7 | CCc1cc2c(cc1N1CCC(N3CCN(C(=O)CCCNc4cccc5c4CN(C4CCC(=O)NC4=O)C5=O)CC3)CC1)C(C)(C)c1[nH]c3cc(C#N)ccc3c1C2=O (stereo not shown) [SIAIS262092, 8-(4-(4-(4-((2-(2,6-dioxopiperidin-3-yl)-1-oxoisoindolin-4-yl)amino)butyryl)piperazin-1-yl)piperidin-1-yl)-9-ethyl-6,6-dimethyl-11-oxo-6,11-dihydro-5H-benzo[b]carbazole-3-carbonitrile] | 1.37 ± 0.87
8 | CCc1cc2c(cc1N1CCC(N3CCN(C(=O)CCCCNc4cccc5c4CN(C4CCC(=O)NC4=O)C5=O)CC3)CC1)C(C)(C)c1[nH]c3cc(C#N)ccc3c1C2=O (stereo not shown) [SIAIS262093, 8-(4-(4-(5-((2-(2,6-dioxopiperidin-3-yl)-1-oxoisoindolin-4-yl)amino)pentanoyl)piperazin-1-yl)piperidin-1-yl)-9-ethyl-6,6-dimethyl-11-oxo-6,11-dihydro-5H-benzo[b]carbazole-3-carbonitrile] | 2.65 ± 1.72
9 | CCc1cc2c(cc1N1CCC(N3CCN(C(=O)CCCCCCNc4cccc5c4CN(C4CCC(=O)NC4=O)C5=O)CC3)CC1)C(C)(C)c1[nH]c3cc(C#N)ccc3c1C2=O (stereo not shown) [SIAIS262095, 8-(4-(4-(7-((2-(2,6-dioxopiperidin-3-yl)-1-oxoisoindolin-4-yl)amino)heptanoyl)piperazin-1-yl)piperidin-1-yl)-9-ethyl-6,6-dimethyl-1-oxo-6,11-dihydro-5H-benzo[b]carbazole-3-carbonitrile] | 3.2 ± 1.93
10 | CCc1cc2c(cc1N1CCC(N3CCN(CCCCC#Cc4cccc5c4CN(C4CCC(=O)NC4=O)C5=O)CC3)CC1)C(C)(C)c1[nH]c3cc(C#N)ccc3c1C2=O (stereo not shown) [SIAIS293002, 8-(4-(4-(6-(2-(2,6-dioxopiperidin-3-yl)-1-oxoisoindolin-4-yl)hex-5-yn-1-yl)piperazin-1-yl)piperidin-1-yl)-9-ethyl-6,6-dimethyl-11-oxo-6,11-dihydro-5H-benzo[b]carbazole-3-carbonitrile] | 2.9
11 | CCc1cc2c(cc1N1CCC(N3CCN(CCCCCCCC#Cc4cccc5c4CN(C4CCC(=O)NC4=O)C5=O)CC3)CC1)C(C)(C)c1[nH]c3cc(C#N)ccc3c1C2=O (stereo not shown) [SIAIS293004, 8-(4-(4-(9-(2-(2,6-dioxopiperidin-3-yl)-1-oxoisoindolin-4-yl)non-8-yn-1-yl)piperazin-1-yl)piperidin-1-yl)-9-ethyl-6,6-dimethyl-11-oxo-6,11-dihydro-5H-benzo[b]carbazole-3-carbonitrile] | 9.5
12 | CCc1cc2c(cc1N1CCC(N3CCN(CCCCc4cccc5c4CN(C4CCC(=O)NC4=O)C5=O)CC3)CC1)C(C)(C)c1[nH]c3cc(C#N)ccc3c1C2=O (stereo not shown) [SIAIS293005, 8-(4-(4-(4-(2-(2,6-dioxopiperidin-3-yl)-1-oxoisoindolin-4-yl)butyl)piperazin-1-yl)piperidin-1-yl)-9-ethyl-6,6-dimethyl-11-oxo-6,11-dihydro-5H-benzo[b]carbazole-3-carbonitrile] | 1.9
13 | CCc1cc2c(cc1N1CCC(N3CCN(CCCCCNc4cccc5c4C(=O)N(C4CCC(=O)NC4=O)C5=O)CC3)CC1)C(C)(C)c1[nH]c3cc(C#N)ccc3c1C2=O (stereo not shown) [SIAIS293008, 8-(4-(4-(5-((2-(2,6-dioxopiperidin-3-yl)-1,3-dioxoisoindolin-4-yl)amino)pentyl)piperazin-1-yl)piperidin-1-yl)-9-ethyl-6,6-dimethyl-11-oxo-6,11-dihydro-5H-benzo[b]carbazole-3-carbonitrile] | 5.2
14 | CCc1cc2c(cc1N1CCC(N3CCN(CCCCCCNc4cccc5c4C(=O)N(C4CCC(=O)NC4=O)C5=O)CC3)CC1)C(C)(C)c1[nH]c3cc(C#N)ccc3c1C2=O (stereo not shown) [SIAIS293009, 8-(4-(4-(6-((2-(2,6-dioxopiperidin-3-yl)-1,3-dioxoisoindolin-4-yl)amino)hexyl)piperazin-1-yl)piperidin-1-yl)-9-ethyl-6,6-dimethyl-11-oxo-6,11-dihydro-5H-benzo[b]carbazole-3-carbonitrile] | 15.1
15 | CCc1cc2c(cc1N1CCC(NC(=O)CCCCNc3cccc4c3CN(C3CCC(=O)NC3=O)C4=O)CC1)C(C)(C)c1[nH]c3cc(C#N)ccc3c1C2=O (stereo not shown) [SIAIS293012, N-(1-(3-cyano-9-ethyl-6,6-dimethyl-11-oxo-6,11-dihydro-5H-benzo[b]carbazol-8-yl)piperidin-4-yl)-5-((2-(2,6-dioxopiperidin-3-yl)-1-oxoisoindolin-4-yl)amino)pentanamide] | 10.3 ± 5.1
16 | CCc1cc2c(cc1N1CCC(N3CCN(CCCCCC#Cc4cccc5c4CN(C4CCC(=O)NC4=O)C5=O)CC3)CC1)C(C)(C)c1[nH]c3cc(C#N)ccc3c1C2=O (stereo not shown) [SIAIS293014, 8-(4-(4-(7-(2-(2,6-dioxopiperidin-3-yl)-1-oxoisoindolin-4-yl)hept-6-yn-1-yl)piperazin-1-yl)piperidin-1-yl)-9-ethyl-6,6-dimethyl-11-oxo-6,11-dihydro-5H-benzo[b]carbazole-3-carbonitrile] | 3.2
17 | CCc1cc2c(cc1N1CCC(N3CCN(CCCCSc4cccc5c4CN(C4CCC(=O)NC4=O)C5=O)CC3)CC1)C(C)(C)c1[nH]c3cc(C#N)ccc3c1C2=O (stereo not shown) [SIAIS293060, 8-(4-(4-(4-((2-(2,6-dioxopiperidin-3-yl)-1-oxoisoindolin-4-yl)thio)butyl)piperazin-1-yl)piperidin-1-yl)-9-ethyl-6,6-dimethyl-11-oxo-6,11-dihydro-5H-benzo[b]carbazole-3-carbonitrile] | 0.1 ± 0.02
18 | CCc1cc2c(cc1N1CCN(CCCCCc3cccc4c3CN(C3CCC(=O)NC3=O)C4=O)CC1)C(C)(C)c1[nH]c3cc(C#N)ccc3c1C2=O (stereo not shown) [SIAIS350081, 8-(4-(5-(2-(2,6-dioxopiperidin-3-yl)-1-oxoisoindolin-4-yl)pentyl)piperazin-1-yl)-9-ethyl-6,6-dimethyl-11-oxo-6,11-dihydro-5H-benzo[b]carbazole-3-carbonitrile] | 6.5 ± 4
19 | CCc1cc2c(cc1N1CCC(N3CCN(CCCCCc4cccc5c4CN(C4CCC(=O)NC4=O)C5=O)CC3)CC1)C(C)(C)c1[nH]c3cc(C#N)ccc3c1C2=O (stereo not shown) [SIAIS350083, 8-(4-(4-(5-(2-(2,6-dioxopiperidin-3-yl)-1-oxoisoindolin-4-yl)pentyl)piperazin-1-yl)piperidin-1-yl)-9-ethyl-6,6-dimethyl-11-oxo-6,11-dihydro-5H-benzo[b]carbazole-3-carbonitrile] | 1.1 ± 0.7
